Experimental data: ChEMBL document CHEMBL1255556, “6-Alkoxyisoindolin-1-one based dopamine D2 partial agonists as potential antipsychotics” (Bioorg Med Chem Lett, 2010)

Key:
Mus musculus [1] = experiment: Antipsychotic activity in po dosed mouse assessed as inhibition of spontaneous locomotor activity; format: functional; settings: for minimal effective dose: read-out: MED
Mus musculus [2] = experiment: Induction of catalepsy in mouse at 30 mg/kg, po; format: organism-based; set-up: dose 30 mg/kg, route oral; settings: in vivo
[3] = biological target: T1, 5-hydroxytryptamine receptor 1A (Homo sapiens) (UniProt P08908); experiment: Intrinsic activity at human […] 5HT1A receptor expressed in HeLa cells by FLIPR assay; format: cell-based
T1 sequence (whole entry): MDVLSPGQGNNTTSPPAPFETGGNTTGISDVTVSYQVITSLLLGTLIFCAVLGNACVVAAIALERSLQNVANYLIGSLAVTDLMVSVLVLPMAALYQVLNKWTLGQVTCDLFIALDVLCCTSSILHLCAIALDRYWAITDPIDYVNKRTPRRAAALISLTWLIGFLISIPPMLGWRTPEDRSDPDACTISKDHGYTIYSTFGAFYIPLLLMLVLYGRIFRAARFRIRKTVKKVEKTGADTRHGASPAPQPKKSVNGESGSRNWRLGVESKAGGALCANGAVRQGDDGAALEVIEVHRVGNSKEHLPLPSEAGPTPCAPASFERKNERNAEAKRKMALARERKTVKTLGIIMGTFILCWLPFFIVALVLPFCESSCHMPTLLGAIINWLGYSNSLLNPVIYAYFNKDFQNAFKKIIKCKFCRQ

Mus musculus [4] = experiment: In vivo intrinsic activity at D2 receptor in mouse brain assessed as inhibition of gamma-butyrolactone-induced increase in DOPA synthesis at 30 mg/kg, po administered 60 mins before gamma-butyrolactone challenge measured after 30 mins; format: functional
[5] = Apparent intrinsic clearance in human liver microsomes; format: ADME, Microsome
Rattus norvegicus [6] = experiment: Ex vivo D2 receptor occupancy in rat striatum assessed as inhibition [3H]-raclopride binding at 30 mg/kg, po; format: functional; set-up: scale not given: the % may be the effect or the level left
[7] = biological target: T2, 5-hydroxytryptamine receptor 1A (Homo sapiens, UniProt P08908); experiment: biochemical
T2 sequence (P08908 whole entry): T1 sequence (whole entry)
Description: Displacement of [3H]-8-OH-DPAT from human 5HT1A receptor expressed in HeLa cells

[8] = Ratio of drug level in brain to plasma in po dosed rat; format: ADME, organism-based; settings: read-out: BPR
[9] = biological target: T3, Sodium-dependent serotonin transporter (Homo sapiens, UniProt P31645); experiment: Displacement of [3H]-citalopram from human serotonin transporter expressed in HEK 293 cells; format: cell-based, HEK293
Rattus norvegicus [10] = experiment: Ex vivo D2 receptor occupancy in rat striatum assessed as inhibition [3H]-raclopride binding at 1 mg/kg, po; format: functional; set-up: scale not given: the % may be the effect or the level left
[11] = biological target: 5-hydroxytryptamine receptor 2A (Homo sapiens, UniProt P28223); experiment: Binding affinity to human 5HT2A receptor
Rattus norvegicus [12] = experiment: Ex vivo D2 receptor occupancy in po dosed rat striatum assessed as inhibition [3H]-raclopride binding at 243 ng/ml plasma concentration; format: functional; set-up: scale not given: the % may be the effect or the level left
Mus musculus [13] = experiment: Induction of catalepsy in mouse at 10 mg/kg, po; format: organism-based; set-up: dose 10 mg/kg, route oral; settings: in vivo
[14] = biological target: Voltage-gated inwardly rectifying potassium channel KCNH2 (Homo sapiens, UniProt Q12809)
Description: Displacement of [3H]dofetilide from human ERG

Rattus norvegicus [15] = experiment: Ex vivo D2 receptor occupancy in po dosed rat striatum assessed as inhibition [3H]-raclopride binding at 82 ng/ml plasma concentration; format: functional; set-up: scale not given: the % may be the effect or the level left
[16] = biological target: T2, 5-hydroxytryptamine receptor 1A; experiment: Binding affinity to human 5HT1A receptor expressed in HeLa cells by scintillation proximity assay; format: cell-based
[17] = biological target: T1, 5-hydroxytryptamine receptor 1A (Homo sapiens); experiment: Intrinsic activity at human […] 5HT1A receptor expressed in HeLa cells by [3H]-thymidine uptake assay; format: cell-based
Rattus norvegicus [18] = experiment: Ex vivo D2 receptor occupancy in po dosed rat striatum assessed as inhibition [3H]-raclopride binding at 47 ng/ml plasma concentration; format: functional; set-up: scale not given: the % may be the effect or the level left
[19] = biological target: T3, Sodium-dependent serotonin transporter; experiment: Displacement of [3H]-citalopram from human serotonin transporter expressed in HEK 293 cells by scintillation proximity assay; format: cell-based, HEK293
Rattus norvegicus [20] = experiment: Ex vivo D2 receptor occupancy in po dosed rat striatum assessed as inhibition [3H]-raclopride binding at 188 ng/ml plasma concentration; format: functional; set-up: scale not given: the % may be the effect or the level left

T3 sequence (P31645 whole entry): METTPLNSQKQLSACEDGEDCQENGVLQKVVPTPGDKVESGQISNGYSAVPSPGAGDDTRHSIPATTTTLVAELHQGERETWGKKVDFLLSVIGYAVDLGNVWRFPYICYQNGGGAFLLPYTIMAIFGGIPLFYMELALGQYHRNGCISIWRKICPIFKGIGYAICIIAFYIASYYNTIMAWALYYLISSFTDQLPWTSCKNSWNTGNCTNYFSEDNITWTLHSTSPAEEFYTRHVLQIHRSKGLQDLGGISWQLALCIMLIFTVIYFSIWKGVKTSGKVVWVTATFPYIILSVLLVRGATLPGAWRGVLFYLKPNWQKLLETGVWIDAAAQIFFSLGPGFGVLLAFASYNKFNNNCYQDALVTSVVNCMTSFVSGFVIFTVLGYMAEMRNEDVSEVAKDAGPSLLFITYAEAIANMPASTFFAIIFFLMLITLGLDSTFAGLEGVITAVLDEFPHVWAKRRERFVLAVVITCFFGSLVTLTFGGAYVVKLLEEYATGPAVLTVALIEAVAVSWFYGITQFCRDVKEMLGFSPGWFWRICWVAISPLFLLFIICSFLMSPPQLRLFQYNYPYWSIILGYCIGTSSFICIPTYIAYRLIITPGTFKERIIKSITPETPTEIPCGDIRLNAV
Sequence of Voltage-gated inwardly rectifying potassium channel KCNH2 (Q12809 whole entry): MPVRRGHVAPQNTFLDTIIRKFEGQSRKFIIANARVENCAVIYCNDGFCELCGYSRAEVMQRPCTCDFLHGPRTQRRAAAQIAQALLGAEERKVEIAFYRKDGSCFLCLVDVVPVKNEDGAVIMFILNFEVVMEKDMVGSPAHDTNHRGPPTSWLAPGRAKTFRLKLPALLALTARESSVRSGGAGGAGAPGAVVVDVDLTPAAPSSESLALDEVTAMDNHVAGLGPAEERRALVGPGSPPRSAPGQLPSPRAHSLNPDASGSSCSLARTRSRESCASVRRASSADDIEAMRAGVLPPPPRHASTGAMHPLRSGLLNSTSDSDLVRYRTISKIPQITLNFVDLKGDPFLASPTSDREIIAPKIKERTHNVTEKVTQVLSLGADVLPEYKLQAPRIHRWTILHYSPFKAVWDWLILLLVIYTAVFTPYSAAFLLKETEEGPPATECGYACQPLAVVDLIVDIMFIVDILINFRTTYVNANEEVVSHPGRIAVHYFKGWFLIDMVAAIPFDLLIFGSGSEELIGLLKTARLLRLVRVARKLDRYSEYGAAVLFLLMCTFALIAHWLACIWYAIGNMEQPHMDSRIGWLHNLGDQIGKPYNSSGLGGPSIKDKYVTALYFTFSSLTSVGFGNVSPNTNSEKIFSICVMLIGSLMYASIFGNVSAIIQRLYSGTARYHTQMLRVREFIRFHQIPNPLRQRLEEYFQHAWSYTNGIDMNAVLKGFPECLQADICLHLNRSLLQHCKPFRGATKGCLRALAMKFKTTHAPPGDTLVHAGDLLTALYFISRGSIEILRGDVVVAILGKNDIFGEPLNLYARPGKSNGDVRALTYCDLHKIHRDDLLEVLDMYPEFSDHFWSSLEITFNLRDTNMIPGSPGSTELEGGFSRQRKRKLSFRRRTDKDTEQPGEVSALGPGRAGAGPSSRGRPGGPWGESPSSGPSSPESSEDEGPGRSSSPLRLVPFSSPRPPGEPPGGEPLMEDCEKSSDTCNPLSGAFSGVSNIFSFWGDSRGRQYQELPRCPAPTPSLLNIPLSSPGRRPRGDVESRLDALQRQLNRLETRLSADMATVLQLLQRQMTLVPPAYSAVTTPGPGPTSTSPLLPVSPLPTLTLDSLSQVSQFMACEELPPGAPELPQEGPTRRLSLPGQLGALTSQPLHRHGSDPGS
Sequence of 5-hydroxytryptamine receptor 2A (P28223 whole entry): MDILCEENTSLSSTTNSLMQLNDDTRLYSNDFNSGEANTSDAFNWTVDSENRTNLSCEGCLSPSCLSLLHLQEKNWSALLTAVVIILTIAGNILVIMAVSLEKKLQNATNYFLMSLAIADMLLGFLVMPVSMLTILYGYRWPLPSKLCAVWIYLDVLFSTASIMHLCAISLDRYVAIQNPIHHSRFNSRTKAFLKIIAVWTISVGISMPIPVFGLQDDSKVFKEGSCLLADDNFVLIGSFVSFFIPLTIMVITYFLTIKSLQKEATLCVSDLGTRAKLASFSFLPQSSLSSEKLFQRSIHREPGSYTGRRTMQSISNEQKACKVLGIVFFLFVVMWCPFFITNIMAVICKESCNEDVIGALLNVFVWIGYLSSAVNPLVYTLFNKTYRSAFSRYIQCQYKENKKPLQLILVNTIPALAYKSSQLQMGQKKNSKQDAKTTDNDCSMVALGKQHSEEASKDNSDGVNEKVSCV

Row | Compound | Ki [7] [nM] | Ki [11] [nM] | Ki [16] [nM] | Intrinsic activity [17] [%] | minimal effective dose (Mus musculus [1]) [mg/kg] | Intrinsic activity (Mus musculus [4]) [%] | Ki [14] [nM] | also measured
1 | O=C1CCc2ccc(OCCCCN3CCN(c4cccc(Cl)c4Cl)CC3)cc2N1 [ARIPIPRAZOLE] | – | – | – | – | 3 | 43 | – | Activity (Mus musculus [2]): Non-toxic; Intrinsic activity [3]: 43%; CLint scaled [5]: 31.7 mL/min/kg
2 | O=C1NCc2ccc(OCCCCN3CCN(c4cccc5cccc(F)c45)CC3)cc21 | 0.0504 | 1.83 | 0.951 | – | 1 | 60 | 2060 | Activity (Rattus norvegicus [6]): 99%; Activity (Mus musculus [1]): Dose-dependent effect; Activity (Mus musculus [2]): Non-toxic; Kp [8]: 1.81; Ki [9]: 26 nM; Activity (Rattus norvegicus [10]): 53%; Activity (Rattus norvegicus [12]): 92.3%; Activity (Mus musculus [13]): Non-toxic; Activity (Rattus norvegicus [15]): 78.5%
3 | Fc1ccc2cccc(N3CCN(CCCCOc4ccc5c(c4)CNC5)CC3)c2c1 | 0.243 | 0.483 | – | – | – | – | 1680 | –
4 | O=C1NCc2ccc(OCCCCN3CCN(c4cccc5ccccc45)CC3)cc21 | 0.151 | 4.95 | 2.22 | 66.7 | 1 | 43 | 1850 | Activity (Rattus norvegicus [18]): 80%; Activity (Mus musculus [1]): Dose-dependent effect; Kp [8]: 2.49; Ki [9]: 16.5 nM; Activity (Rattus norvegicus [10]): 55%; Ki [19]: 445 nM; Activity (Rattus norvegicus [20]): 94%; CLint scaled [5]: 23.7 mL/min/kg
5 | O=C1NCc2ccc(OCCCCN3CCN(c4cccc5cc(F)ccc45)CC3)cc21 | 13.4 | 9.53 | – | – | – | – | 969 | –
6 | O=C1NCc2ccc(OCCCN3CCN(c4cccc5cc(F)c(F)cc45)CC3)cc21 | 0.179 | 20.1 | – | – | – | – | 907 | –

More lines, main results first:

Row | Ki [7] [nM] | Ki [11] [nM] | Ki [16] [nM] | Intrinsic activity [17] [%] | Compound | minimal effective dose (Mus musculus [1]) [mg/kg] | Intrinsic activity (Mus musculus [4]) [%] | Ki [14] [nM] | also measured
7 | 0.0152 | – | 0.541 | 88.8 | O=C1NCc2ccc(OCCCN3CCN(c4cccc5ccccc45)CC3)cc21 | – | – | 2810 | Intrinsic activity [3]: 65.9%
8 | 0.149 | 1.76 | – | 77.8 | c1ccc2c(N3CCN(CCCOc4ccc5c(c4)CNC5)CC3)cccc2c1 | – | – | – | –
9 | 0.102 | 0.72 | – | 73.3 | Fc1ccc2cccc(N3CCN(CCCOc4ccc5c(c4)CNC5)CC3)c2c1 | – | – | 931 | –
10 | 0.204 | 5.07 | – | – | c1ccc2c(N3CCN(CCCCOc4ccc5c(c4)CNC5)CC3)cccc2c1 | – | – | 1560 | –
